The values below come from patent US12372525B2 (priority 2013, dated 2025).

“Also recorded” adds a separate entry of the source. A value given as a limit tells only on which side of the number the result lay.

Broadly, the IC50 is the concentration needed to halve the response being measured.

The test system of experiment [1] is A/Massachusetts/5/2007 (H1N1) H274Y. Particulars: Oselt resistance strain; cited from earlier work.
In experiment [2] the test system is A/Mississippi/03/2001 A(H1N1) H275Y neuraminidase. Particulars: stated character of the test strain; cited from earlier work.
The next experiment has as its system influenza virus. Conditions: cited from earlier work.
The subject of experiment [3] is A/Texas/12/2007 (H3N2) E119V. Conditions: Oselt resistance strain; cited from earlier work.
Experiment [4] deals with A/Georgia/20/2006 (H1N1) H274Y. Particulars: Oselt resistance strain; cited from earlier work.
Experiment [5] deals with A/Washington/29/2009(H1N1pdm) H275Y. Conditions: Oselt resistance strain; cited from earlier work.
For experiment [6], the system named is B/Hong Kong/36/2005 B) R371K. Conditions: Oselt + Zana resistance strain; cited from earlier work.
Experiment [7] deals with A/Mississippi/03/2001 A(H1N1) H275Y neuraminidase. It is filed as biochemical, Influenza A.
The subject of experiment [8] is A/Montana/8/2007 (H3N2) D151V/D. Conditions: Zana resistance strain; cited from earlier work.

`CCOC(=O)C1=C[C@@H](OC(CC)CC)[C@H](NC(C)=O)[C@@H](N)C1` [Oseltamivir]: the IC50 in experiment [1] was 0.258 µM; in experiment [3], 0.00918 µM; in experiment [4] it was 0.383 µM; in experiment [5], 1.46 µM; in experiment [6], 1.78 µM. Moreover, the “known sensitivity of the test strain neuraminidase to the drug” value in experiment [2] is recorded as “resistant”. For the same compound, the “decrease in susceptibility of isolated virus variants” value with influenza virus was above 10 fold.
With `CC(=O)N[C@H]1[C@H]([C@H](O)[C@H](O)CO)OC(C(=O)O)=C[C@@H]1N=C(N)N` [Zanamivir], the “known sensitivity of the test strain neuraminidase to the drug” value in experiment [2] is “sensitive”. In addition, the “relative sensitivity of test strain in dual enzyme assay” value in experiment [7] is “more sensitive to Zanamivir than Oseltamivir; also recorded: Relenza outperforms Tamiflu”. Besides, the IC50 in experiment [8] is 0.192 µM; in [6] it was 0.154 µM.
